Reference: patent US20220112225A1, “ANANDAMIDE COMPOUNDS” (priority 2019, published 2022)

Experiments:
[1] = PO JVC rat terminal PK study at 20 mg/kg (tissue distribution); format: in vivo; details: rat, 20 mg/kg PO; for Brain to Blood Ratio (corrected): corrected for 15 μL of blood per gram of brain tissue
Method: Compound 3 was orally dosed at 20 mg/kg to a group of nine, jugular vein cannulated, individually housed male Sprague Dawley rats that were fasted overnight and fed 4 h post-dose to assess its tissue distribution profile. Dosing was performed with 5 mL/kg dosing volumes with 5% DMSO, 95% water used as a dosing vehicle. Terminal blood samples (>230 μL) were taken from groups of 3 animals at each of 3 time-points post dose (1 h, 2 h, and 4 h) by cardiac puncture under CO2 into heparinised Eppendorf tubes (containing 5 μL heparin) on ice containing an equal quantity of water. Two 100 μL aliquots were then placed in duplicate 96 well plates on dry ice. Immediately after blood sampling, brain and eye pair samples were excised, weighed, rinsed, blotted, and snap frozen in liquid N2. Samples were stored in the freezer at −20° C. until bioanalysis.
Tissue samples were weighed and a volume of water 3 times the mass added to samples before homogenization. In the case of eyeballs the lens could not be homogenized, but all other tissues homogenized. The resulting data (tissue distribution parameters) are shown below in Table 2.

[2] = PO JVC rat PK study at 10 mg/kg; format: in vivo; details: male Sprague Dawley rats
Method: Compound 3 was orally dosed at 10 mg/kg to a group of 3 individually housed male Sprague Dawley rats that were fasted overnight and fed 4 h post-dose, the rats were fitted with JVCs. Dosing was performed with 5 mL/kg dosing volumes with 5% DMSO 95% water used as a dosing vehicle. Serial blood (150 μL) samples were taken from each animal at each timepoint (0.25 h, 0.5 h, 1 h, 2 h, 4 h, 6 h, 8 h, and 24 h) into heparinised Eppendorf tubes (containing 5 μL heparin) on ice containing an equal quantity of water. Two 100 μL aliquots were then placed in duplicate 96 well plates on dry ice. Samples were stored in the freezer at −20° C. until bioanalysis.
(§1) Samples were defrosted and acetonitrile (containing internal standard) was used to precipitate the proteins. All the samples were mixed, centrifuged and the supernatants analysed by LC-MS-MS according to the following procedures: • 1. 20 μL plasma was transferred to a v-bottom 96-well plate. • 2. 80 μL acetonitrile (ACN) containing IS was added to each well. • 3. The plate was sealed and gently mixed for approximately 30 s. • 4. Plates were centrifuged for 10 min at 3500 rpm. • 5. 50 μL supernatant was transferred to a fresh v-bottom 96-well plate containing 100 μL MilliQ water.
(§2) Plates were thermo-sealed and stored at 4° C. until analysis. The resulting PK parameters are shown below in Table 1.

[3] = In vitro brain homogenate stability, mouse; format: in vitro ADME
Method: Fresh rodents brains were snap frozen immediately after collection and the assay performed on the same day. Brains were pre-incubated at 37° C. before being spiked with test compound at 1 μM. Samples were collected across 6 time points (0, 10, 20, 30, 45 and 60 minutes) and crashed in cold acetonitrile containing an internal standard (Leucine Enkephalin) and kept on ice until all samples had been collected. The samples were then shaken and centrifuged. 100 μL of supernatant was transferred to a plate containing 50 μL of MilliQ water and mixed. These plates were analyzed by LC-MS/MS over the 6 time points, where the percentage of test compound remaining was calculated using the peak area of the initial timepoint (T=0 minutes) as 100%. The natural log of the percentage remaining was then calculated. The natural log of the percentage remaining versus time (minutes) was plotted on a graph and the gradient of this graph was used to calculate the elimination rate constant (K), The half-life (t1/2) of test compound was calculated using the natural log of 2 divided by the elimination rate constant. The percentage of Compound 2 formed is reported below in Tables 4-6. FIGS. 9A-9F show results of the brain homogenate stability conducted with representative compounds of the Examples.

[4] = IV JVC rat PK study at 3 mg/kg; format: in vivo; details: male Sprague Dawley rats, 3 mg/kg IV
Method: Compound 3 was intravenously dosed at 3 mg/kg into a group of 3 individually housed, normally fed male Sprague Dawley rats that had been fitted with jugular vein catheters (JVCs). Dosing was performed with 2 mL/kg dosing volumes with 5% DMSO 95% water used as a dosing vehicle. Serial blood samples (150 μL) were taken from each animal at each time point post dose (0.08 h, 0.25 h, 0.5 h, 1 h, 2 h, 4 h, 8 h, and 24 h) into heparinised Eppendorf tubes (containing 5 μL heparin) on ice containing an equal quantity of water. Two 100 μL aliquots were then placed in duplicate 96 well plates on dry ice. Samples were stored in the freezer at −20° C. until bioanalysis.
as §1, §2

## 2-(5Z,8Z,11Z,14Z)-icosa-5,8,11,14-tetraenamidoethyl (trimethylammonio) ethylphosphate [Compound 3]
[1]; 1 h
  Brain to Blood Ratio (corrected): 0.25
[1]; 1 h post dose
  Blood: 108.4 ng/mL
  Brain: 28.3 ng/g
  Eye: 1035.4 ng/g
[1]; 2 h
  Brain to Blood Ratio (corrected): 1.69
[1]; 2 h post dose
  Blood: 16.7 ng/mL
  Brain: 28.5 ng/g
  Eye: 105.0 ng/g
[1]; 4 h
  Brain to Blood Ratio (corrected): 2.69
[1]; 4 h post dose
  Blood: 12.8 ng/mL
  Brain: 34.6 ng/g
  Eye: 104.4 ng/g
[2]; 10 mg/kg PO
  AUC0-inf: 2426.6 ng·h/mL
  AUC0-t: 2348.5 ng·h/mL
  Cmax: 372 ng/mL
  Tmax: 2.5 h
[2]; 10 mg/kg PO vs 3 mg/kg IV
  Bioavailability: 28 % F
[3]; 37° C., test compound at 1 μM
  Mouse t1/2: 1.67 h
[3]; one hour incubation, increasing formation of Compound 2
  Clearance in brain homogenate stability study (in words): demonstrated a level of clearance
[4]
  AUC0-inf: 2561.0 ng·h/mL
  AUC0-t: 2462.2 ng·h/mL
  CI: 31 mL/min/kg
  Vdss: 6.3 L/kg
  t1/2: 7.4 h
